Counter-ions that a name gives are not always drawn. Like-named read-outs stand apart in the source and are kept apart here.
What was measured:
[1] = tested on: papillary muscle preparation; experiment: Isolated, blood-perfused papillary muscle preparation, developed tension (Table 1); design: species or system Mongrel dogs; details: Canis lupus familiaris, close-arterial injection, read-out: Papillary muscle preparation, % increase in developed tension; for activation at 0.03 mg: dose 30 μg; for activation at 0.1 mg: dose 100 μg; for activation at 0.3 mg: dose 300 μg
Experimental: Mongrel dogs of either sex weighting 7.5-10 kg were anesthetized with sodium pentobarbital (30 mg/kg, i.v.). Each animal was given an intravenous dose of sodium heparin (500 units/kg), thereafter, the heart was removed and placed in cold Tyrode solution. The isolated and cross-circulated right atrium and papillary muscle preparations were arranged for perfusion from a donor dog as follows. The donor dog was also anesthetized with sodium pentobarbital (30 mg/kg, i.v.); heparin (500 units/kg) was given intravenously immediately before the perfusion began. (a) The isolated, blood-perfused papillary muscle preparation. The anterior septal artery was dissected and cannulated with polyethylene tubing. The tendinous end of the papillary muscle was connected to a strain-gauge transducer by a fine silk thread and the muscles were under about 2 g of resting tension. The papillary muscle preparation was electrically driven at a constant frequency of 120/min with rectangular pulses of 1-3 V and 5 msec duration. The preparation of the blood-perfused papillary muscle has been described in detail by Endoh and Hashimoto Am. J. Physiol, 218, 1459-1463 (1970). Each preparation was perfused with the arterial blood from the carotid artery of the donor dog at a constant perfusion pressure of 100 mmHg by means of a peristaltic pump. The venous effluent from the preparations was collected in a reservoir and returned to the donor dog through the jugular vein. Test compounds used in these experiments were dissolved in vehicle solution and were injected closearterially to the preparations. The effects of each compound on the developed tension and sinuo rate were evaluated as a percentage change in values determined before and after administration of the compound. In Table 1 are shown such changes in terms of the percentage increase after administration.

right atrium preparation = experiment: Isolated, blood-perfused right atrium preparation, sinus rate (Table 1); design: species or system Mongrel dogs; details: Canis lupus familiaris, close-arterial injection, read-out: Right atrium preparation; for activation at 0.03 mg: dose 30 μg; for activation at 0.03 mg / activation at 0.1 mg / activation at 0.3 mg: % increase in sinus rate
Experimental: Mongrel dogs of either sex weighting 7.5-10 kg were anesthetized with sodium pentobarbital (30 mg/kg, i.v.). Each animal was given an intravenous dose of sodium heparin (500 units/kg), thereafter, the heart was removed and placed in cold Tyrode solution. The isolated and cross-circulated right atrium and papillary muscle preparations were arranged for perfusion from a donor dog as follows. The donor dog was also anesthetized with sodium pentobarbital (30 mg/kg, i.v.); heparin (500 units/kg) was given intravenously immediately before the perfusion began. (b) The isolated, blood-perfused right atrium preparation. The sinus node artery was cannulated at its origin in the right coronary artery. A right atrial electrogram was obtained from bipolar electrodes which were placed in close proximity to the sinoatrial node. The sinus rate was recorded by a cardiotachometer triggered by the right atrial electrogram. The details of the bloodperfused right atrium preparation have been described by Chiba et al. (Tohoku J. exp. Med., 107, 101-102 (1972) and Kubota and Hashimoto (Naunyn-Schmiedeberg's Arch. Pharmacol., 278, 135-150 (1973)). Each preparation was perfused with the arterial blood from the carotid artery of the donor dog at a constant perfusion pressure of 100 mmHg by means of a peristaltic pump. The venous effluent from the preparations was collected in a reservoir and returned to the donor dog through the jugular vein. Test compounds used in these experiments were dissolved in vehicle solution and were injected closearterially to the preparations. The effects of each compound on the developed tension and sinuo rate were evaluated as a percentage change in values determined before and after administration of the compound. In Table 1 are shown such changes in terms of the percentage increase after administration.

[2] = tested on: anesthetized open-chest dogs; experiment: Cardiovascular effect in anesthetized open-chest dogs (Table 2); type: in vivo, Mongrel dogs; details: femoral vein; for change in vivo at 0.1 mg/kg / change in vivo at 0.3 mg/kg / change in vivo at 0.03 mg/kg: Canis lupus familiaris, iv
Experimental: Mongrel dogs of either sex weighing 9-15 kg were anesthetized with sodium pentobarbital (30 mg/kg, i.v.). The heart was exposed by thoractomy by the left fifth intercostal incision under artificial respiration. Aortic flow was measured by the probe of electromagnetic flowmeter placed around the ascending aorta. Myocardial contractility was measured by the maximal rate of rise of left ventricular pressure which was recorded from a needle inserted into the ventricular cavity. The systemic blood pressure was measured with a pressure transducer by means of a polyethylene cannular inserted into the femoral artery. The heart rate was recorded by a cardiotrachometer triggered by R wave of electrocargiogram (Lead II). Test compounds were dissolved in vehicle solution and were injected into the femoral vein. The effects of each compound on the cardiac contractility and aortic flow were evaluated as a percentage change in values determined before and after administration of the compound. In Table 2 are shown such changes in terms of the percentage increase after administration.

Toxicity (LD50) = details: in vivo, iv; mouse; I.V.
[3] = read-out: Increase in aortic flow (%)
[4] = read-out: Increase in cardiac contractility (%)
[5] = 0.03 mg/kg, read-out: Increase in aortic flow (%)
[6] = 0.03 mg/kg, read-out: Increase in cardiac contractility (%)

Compound | activation at 0.03 mg [1] | activation at 0.1 mg [1] | activation at 0.03 mg (right atrium preparation) | activation at 0.1 mg (right atrium preparation; dose 100 μg) | change in vivo at 0.1 mg/kg [2, 3] | change in vivo at 0.1 mg/kg [2, 4] | change in vivo at 0.3 mg/kg [2, 3] | change in vivo at 0.3 mg/kg [2, 4] | LD50 (Toxicity (LD50)) | change in vivo at 0.03 mg/kg [2, 5] | change in vivo at 0.03 mg/kg [2, 6] | activation at 0.3 mg [1] | activation at 0.3 mg (right atrium preparation; dose 300 μg) | inhibition at 0.1 mg (right atrium preparation; dose 100 μg, % decrease in sinus rate (in parentheses)) | inhibition at 0.3 mg (right atrium preparation; dose 300 μg, % decrease in sinus rate (in parentheses)) | % decrease in aortic flow (in parentheses) ([2]; 0.03 mg/kg) | % decrease in cardiac contractility (in parentheses) ([2]; 0.03 mg/kg)
Cl.Cl.N=C(NCCc1ccccc1)c1ccc(CCc2ccc(CN)cc2)cc1 [Compound 5, 4-[2-(4-Aminomethylphenyl)ethyl]-N-(2-phenylethyl)benzamidine dihydrochloride] | 33.3% | 53.5% | 16% | 17.7% | 5% | 12.9% | 19.2% | 38.9% | 57.7 mg/kg | – | – | – | – | – | – | – | –
Cl.Cl.N=C(N)c1ccc(CCc2ccc(CN)cc2)cc1 [Compound 2, 4-[2-(4-Aminomethylphenyl)ethyl]benzamidine dihydrochloride] | 63.8% | 104% | 10.7% | 21.8% | 16.1% | 25% | – | – | 40 mg/kg | 5% | 7.1% | – | – | – | – | – | –
CN=C(NC)c1ccc(CCc2ccc(CN)cc2OC)cc1 [Compound 17, 4-[2-(4-Aminomethyl-2-methoxyphenyl)ethyl]-N,N'-dimethylbenzamidine dihydrochloride] | – | 76.5% | – | 14.3% | 17% | 76.5% | – | – | – | 4.7% | 13.5% | 110% | 20.3% | – | – | – | –
CC(=O)O.CC(=O)O.N=C(N)c1ccc(OCc2ccc(CN)cc2)cc1 [Compound 8, 4-(4-aminomethylbenzyloxy)benzamidine diacetate] | – | 20.7% | – | 2.2% | 6.1% | 0% | 9.5% | 16.7% | 57.7 mg/kg | – | – | 44.8% | 7.5% | 7.7% | 9.7% | – | –
COc1cc(CN)ccc1CCc1ccc(C2=NCCN2)cc1 [Compound 20, 2-{4-[2-(4-Aminomethyl-2-methoxyphenyl)ethyl]phenyl}imidazoline dihydrochloride] | – | 72.2% | – | 26.8% | – | – | – | – | – | 7.9% | 78.6% | 104% | 45.7% | – | – | -1.1% | -7.8%
CNC(=N)c1ccc(C=Cc2ccc(CN)cc2)cc1 [Compound 7, 4-[2-(4-aminomethylphenyl)ethenyl]-N-methylbenzamidine dihydrochloride] | – | 44.7% | – | 8.3% | 4.2% | 3.1% | 13.8% | 16.7% | – | – | – | 66% | 28.2% | – | – | – | –
CNC(=N)c1ccc(CCc2ccc(CN)cc2[N+](=O)[O-])cc1 [Compound 13, N-Methyl-4-[2-(4-aminomethyl-2-nitrophenyl)ethyl]benzamidine dihydrochloride] | 64.2% | 95.5% | 32.3% | 35.9% | 12.1% | 66.7% | – | – | – | 5.7% | 29% | – | – | – | – | – | –

From patent US4598077A, “Amidine derivatives and cardiotonic compositions” (Torii & Co. Ltd., priority 1983, dated 1986)
